The source of these data is ChEMBL document CHEMBL6153110, “Peptide Double-Stapling and Arginine N-Glycosylation Triggered the Development of Therapeutic Antimicrobial Peptides Capable of Killing Drug-Resistant Bacteria in Mice” (J Med Chem, 2025).

In brackets after ≈: the same amount, converted by molar mass. Positions of bridges follow the written chain, without caps; N, C: chain ends. Non-standard residues stand in square brackets, D forms with d. Residues, ends and D or L forms follow the SMILES beside them. R8 = C=CCCCCCC[C@@](C)(N)C(=O)O; S5 = C=CCCC[C@](C)(N)C(=O)O

Common to all, as to assay type: functional
One test relates to Klebsiella pneumoniae. The experiment in a line: Antimicrobial activity against Klebsiella pneumoniae ATCC 13883 assessed as growth inhibition measured after 8 hrs incubation by standard broth dilution assay.
A further test deals with Staphylococcus aureus. Put plainly: Antimicrobial activity against methicillin-resistant Staphylococcus aureus ATCC 43300 assessed as growth inhibition measured after 8 hrs incubation by standard broth dilution assay.
The subject of the next test is Pseudomonas aeruginosa. Put plainly: Antimicrobial activity against Pseudomonas aeruginosa ATCC 27853 assessed as growth inhibition measured after 8 hrs incubation by standard broth dilution assay.
Another test deals with Streptococcus pneumoniae. Put plainly: Antimicrobial activity against Streptococcus pneumoniae ATCC 49619 assessed as growth inhibition measured after 8 hrs incubation by standard broth dilution assay.

As for `CC(=O)N[C@@H](CC(C)C)C(=O)N[C@@H](CCCCN)C(=O)N[C@@H](CCCNC(=N)N)C(=O)N[C@H](C(=O)N[C@@H](Cc1c[nH]c2ccccc12)C(=O)N[C@@H](CCCCN)C(=O)N[C@@H](CCCNC(=N)N)C(=O)N[C@H](C(=O)N[C@@H](Cc1ccccc1)C(=O)N[C@@H](CCCCN)C(=O)N[C@@H](CC(C)C)C(=O)N[C@@H](CC(C)C)C(=O)N[C@@H](CCCCN)C(=O)N[C@@H](CCCNC(=N)N)C(=O)N[C@@H](Cc1ccc(O)cc1)C(=O)N[C@@H](Cc1c[nH]c2ccccc12)C(=O)N[C@@H](CCCNC(=N)N)C(=O)N[C@@H](CCC(N)=O)C(=O)N[C@@]1(C)CCC/C=C\CCC[C@@](C)(C(=O)N[C@@H](CCCNC(=N)N)C(N)=O)NC(=O)[C@@H]2CCCN2C(=O)[C@H](CCCCN)NC(=O)[C@H](CCCCN)NC1=O)C(C)C)C(C)C` (Ac-LKRVWKRVFKLLKRYWRQ[S5]KKP[S5]R-NH2; staple (Z) 19-23), the MIC turned out to be 38 µg/mL (≈ 11.5 µM) with Klebsiella pneumoniae, 19.1 µg/mL (≈ 5.78 µM) in the test on Staphylococcus aureus, 5 µg/mL (≈ 1.51 µM) in the test with Pseudomonas aeruginosa and 9.6 µg/mL (≈ 2.9 µM) with Streptococcus pneumoniae.
The matching figures for `CC(=O)N[C@@H](CC(C)C)C(=O)N[C@@H](CCCCN)C(=O)N[C@@H](CCCNC(=N)N)C(=O)N[C@H](C(=O)N[C@@H](Cc1c[nH]c2ccccc12)C(=O)N[C@@H](CCCCN)C(=O)N[C@@H](CCCNC(=N)N)C(=O)N[C@H](C(=O)N[C@@H](Cc1ccccc1)C(=O)N[C@@H](CCCCN)C(=O)N[C@@H](CC(C)C)C(=O)N[C@@H](CC(C)C)C(=O)N[C@@H](CCCCN)C(=O)N[C@@H](CCCNC(=N)N)C(=O)N[C@@H](Cc1ccc(O)cc1)C(=O)N[C@@H](Cc1c[nH]c2ccccc12)C(=O)N[C@@H](CCCNC(=N)N)C(=O)N[C@@]1(C)CCC/C=C\CCC[C@@](C)(C(=O)N[C@H](C(=O)N[C@@H](CCCNC(=N)N)C(N)=O)C(C)C)NC(=O)[C@H](CCCCN)NC(=O)[C@H](CCCCN)NC(=O)[C@H](CC(C)C)NC1=O)C(C)C)C(C)C` (Ac-LKRVWKRVFKLLKRYWR[S5]LKK[S5]VR-NH2; staple (Z) 18-22): 38 µg/mL (≈ 11.5 µM), 4.9 µg/mL (≈ 1.49 µM), 9.8 µg/mL (≈ 2.98 µM) and 37.7 µg/mL (≈ 11.5 µM).
In the same order, the values of `CC(=O)N[C@@H](CC(C)C)C(=O)N[C@@H](CCCCN)C(=O)N[C@@H](CCCNC(=N)N)C(=O)N[C@H](C(=O)N[C@@H](Cc1c[nH]c2ccccc12)C(=O)N[C@@H](CCCCN)C(=O)N[C@@H](CCCNC(=N)N)C(=O)N[C@H](C(=O)N[C@@H](Cc1ccccc1)C(=O)N[C@@H](CCCCN)C(=O)N[C@@H](CC(C)C)C(=O)N[C@@H](CC(C)C)C(=O)N[C@@H](CCCCN)C(=O)N[C@@H](CCCNC(=N)N)C(=O)N[C@@H](Cc1ccc(O)cc1)C(=O)N[C@]1(C)CCCCCC/C=C\CCC[C@@](C)(C(=O)N[C@@H](CCCNC(=N)N)C(N)=O)NC(=O)[C@@H]2CCCN2C(=O)[C@H](CCCCN)NC(=O)[C@H](CCCCN)NC(=O)[C@H](CC(C)C)NC(=O)[C@H](CCC(N)=O)NC(=O)[C@H](CCCNC(=N)N)NC1=O)C(C)C)C(C)C` (Ac-LKRVWKRVFKLLKRY[R8]RQLKKP[S5]R-NH2; staple (Z) 16-23) are 2.5 µg/mL (≈ 0.764 µM), 9.7 µg/mL (≈ 2.96 µM), 2.6 µg/mL (≈ 0.794 µM) and 19 µg/mL (≈ 5.8 µM).
The matching figures for `CC(=O)N[C@@H](CC(C)C)C(=O)N[C@@H](CCCCN)C(=O)N[C@@H](CCCNC(=N)N)C(=O)N[C@H](C(=O)N[C@@H](Cc1c[nH]c2ccccc12)C(=O)N[C@@H](CCCCN)C(=O)N[C@@H](CCCNC(=N)N)C(=O)N[C@H](C(=O)N[C@@H](Cc1ccccc1)C(=O)N[C@@H](CCCCN)C(=O)N[C@@H](CC(C)C)C(=O)N[C@@H](CC(C)C)C(=O)N[C@@H](CCCCN)C(=O)N[C@@H](CCCNC(=N)N)C(=O)N[C@@H](Cc1ccc(O)cc1)C(=O)N[C@@]1(C)CCC/C=C\CCC[C@@](C)(C(=O)N[C@@H](CCCCN)C(=O)N2CCC[C@H]2C(=O)N[C@H](C(=O)N[C@@H](CCCNC(=N)N)C(N)=O)C(C)C)NC(=O)[C@H](CC(C)C)NC(=O)[C@H](CCC(N)=O)NC(=O)[C@H](CCCNC(=N)N)NC1=O)C(C)C)C(C)C` (Ac-LKRVWKRVFKLLKRY[S5]RQL[S5]KPVR-NH2; staple (Z) 16-20): 38 µg/mL (≈ 11.9 µM), 2.5 µg/mL (≈ 0.78 µM), 5 µg/mL (≈ 1.56 µM) and 19 µg/mL (≈ 5.93 µM).
`CC(=O)N[C@@H](CC(C)C)C(=O)N[C@@H](CCCCN)C(=O)N[C@@H](CCCNC(=N)N)C(=O)N[C@H](C(=O)N[C@@H](Cc1c[nH]c2ccccc12)C(=O)N[C@@H](CCCCN)C(=O)N[C@@H](CCCNC(=N)N)C(=O)N[C@H](C(=O)N[C@@H](Cc1ccccc1)C(=O)N[C@@H](CCCCN)C(=O)N[C@@H](CC(C)C)C(=O)N[C@@H](CC(C)C)C(=O)N[C@@H](CCCCN)C(=O)N[C@@H](CCCNC(=N)N)C(=O)N[C@]1(C)CCCCCC/C=C\CCC[C@@](C)(C(=O)N[C@H](C(=O)N[C@@H](CCCNC(=N)N)C(N)=O)C(C)C)NC(=O)[C@H](CCCCN)NC(=O)[C@H](CCCCN)NC(=O)[C@H](CC(C)C)NC(=O)[C@H](CCC(N)=O)NC(=O)[C@H](CCCNC(=N)N)NC(=O)[C@H](Cc2c[nH]c3ccccc23)NC1=O)C(C)C)C(C)C` (Ac-LKRVWKRVFKLLKR[R8]WRQLKK[S5]VR-NH2; staple (Z) 15-22): the minimum inhibitory concentration (MIC) in the test on Klebsiella pneumoniae is 38 µg/mL (≈ 11.5 µM); in the test on Staphylococcus aureus, 4.9 µg/mL (≈ 1.49 µM); in the test on Pseudomonas aeruginosa it was 9.9 µg/mL (≈ 3 µM); in the test with Streptococcus pneumoniae, 37.7 µg/mL (≈ 11.4 µM).
As for `CC(=O)N[C@@H](CC(C)C)C(=O)N[C@@H](CCCCN)C(=O)N[C@@H](CCCNC(=N)N)C(=O)N[C@H](C(=O)N[C@@H](Cc1c[nH]c2ccccc12)C(=O)N[C@@H](CCCCN)C(=O)N[C@@H](CCCNC(=N)N)C(=O)N[C@H](C(=O)N[C@@H](Cc1ccccc1)C(=O)N[C@@H](CCCCN)C(=O)N[C@@H](CC(C)C)C(=O)N[C@@H](CC(C)C)C(=O)N[C@@H](CCCCN)C(=O)N[C@@H](CCCNC(=N)N)C(=O)N[C@@]1(C)CCC/C=C\CCC[C@@](C)(C(=O)N[C@@H](CCCCN)C(=O)N[C@@H](CCCCN)C(=O)N2CCC[C@H]2C(=O)N[C@H](C(=O)N[C@@H](CCCNC(=N)N)C(N)=O)C(C)C)NC(=O)[C@H](CCC(N)=O)NC(=O)[C@H](CCCNC(=N)N)NC(=O)[C@H](Cc2c[nH]c3ccccc23)NC1=O)C(C)C)C(C)C` (Ac-LKRVWKRVFKLLKR[S5]WRQ[S5]KKPVR-NH2; staple (Z) 15-19), the MIC was determined as 38 µg/mL (≈ 11.7 µM) with Klebsiella pneumoniae, 19.1 µg/mL (≈ 5.89 µM) in the test on Staphylococcus aureus, 9.9 µg/mL (≈ 3.05 µM) in the test with Pseudomonas aeruginosa and 37.7 µg/mL (≈ 11.6 µM) in the test on Streptococcus pneumoniae.
Regarding `CC(=O)N[C@@H](CC(C)C)C(=O)N[C@@H](CCCCN)C(=O)N[C@@H](CCCNC(=N)N)C(=O)N[C@H](C(=O)N[C@@H](Cc1c[nH]c2ccccc12)C(=O)N[C@@H](CCCCN)C(=O)N[C@@H](CCCNC(=N)N)C(=O)N[C@H](C(=O)N[C@@H](Cc1ccccc1)C(=O)N[C@@H](CCCCN)C(=O)N[C@@H](CC(C)C)C(=O)N[C@]1(C)CCCCCC/C=C\CCC[C@@](C)(C(=O)N[C@@H](CCCCN)C(=O)N[C@@H](CCCCN)C(=O)N2CCC[C@H]2C(=O)N[C@H](C(=O)N[C@@H](CCCNC(=N)N)C(N)=O)C(C)C)NC(=O)[C@H](CCC(N)=O)NC(=O)[C@H](CCCNC(=N)N)NC(=O)[C@H](Cc2c[nH]c3ccccc23)NC(=O)[C@H](Cc2ccc(O)cc2)NC(=O)[C@H](CCCNC(=N)N)NC(=O)[C@H](CCCCN)NC1=O)C(C)C)C(C)C` (Ac-LKRVWKRVFKL[R8]KRYWRQ[S5]KKPVR-NH2; staple (Z) 12-19), the MIC with Klebsiella pneumoniae amounted to 38 µg/mL (≈ 11.4 µM); in the test on Staphylococcus aureus, 4.9 µg/mL (≈ 1.47 µM); in the test with Pseudomonas aeruginosa, 2.6 µg/mL (≈ 0.78 µM); in the test on Streptococcus pneumoniae it was 4.7 µg/mL (≈ 1.41 µM).
The matching figures for `CC(=O)N[C@@H](CC(C)C)C(=O)N[C@@H](CCCCN)C(=O)N[C@@H](CCCNC(=N)N)C(=O)N[C@H](C(=O)N[C@@H](Cc1c[nH]c2ccccc12)C(=O)N[C@@H](CCCCN)C(=O)N[C@@H](CCCNC(=N)N)C(=O)N[C@H](C(=O)N[C@@H](Cc1ccccc1)C(=O)N[C@@H](CCCCN)C(=O)N[C@@H](CC(C)C)C(=O)N[C@@]1(C)CCC/C=C\CCC[C@@](C)(C(=O)N[C@@H](CCCNC(=N)N)C(=O)N[C@@H](CCC(N)=O)C(=O)N[C@@H](CC(C)C)C(=O)N[C@@H](CCCCN)C(=O)N[C@@H](CCCCN)C(=O)N2CCC[C@H]2C(=O)N[C@H](C(=O)N[C@@H](CCCNC(=N)N)C(N)=O)C(C)C)NC(=O)[C@H](Cc2ccc(O)cc2)NC(=O)[C@H](CCCNC(=N)N)NC(=O)[C@H](CCCCN)NC1=O)C(C)C)C(C)C` (Ac-LKRVWKRVFKL[S5]KRY[S5]RQLKKPVR-NH2; staple (Z) 12-16): 38 µg/mL (≈ 11.8 µM), 9.7 µg/mL (≈ 3.01 µM), 5 µg/mL (≈ 1.55 µM) and 4.7 µg/mL (≈ 1.46 µM).
Take `CC(=O)N[C@@H](CC(C)C)C(=O)N[C@@H](CCCCN)C(=O)N[C@@H](CCCNC(=N)N)C(=O)N[C@H](C(=O)N[C@@H](Cc1c[nH]c2ccccc12)C(=O)N[C@@H](CCCCN)C(=O)N[C@@H](CCCNC(=N)N)C(=O)N[C@H](C(=O)N[C@@H](Cc1ccccc1)C(=O)N[C@@H](CCCCN)C(=O)N[C@]1(C)CCCCCC/C=C\CCC[C@@](C)(C(=O)N[C@@H](CC(C)C)C(=O)N[C@@H](CCCCN)C(=O)N[C@@H](CCCCN)C(=O)N2CCC[C@H]2C(=O)N[C@H](C(=O)N[C@@H](CCCNC(=N)N)C(N)=O)C(C)C)NC(=O)[C@H](CCCNC(=N)N)NC(=O)[C@H](Cc2c[nH]c3ccccc23)NC(=O)[C@H](Cc2ccc(O)cc2)NC(=O)[C@H](CCCNC(=N)N)NC(=O)[C@H](CCCCN)NC(=O)[C@H](CC(C)C)NC1=O)C(C)C)C(C)C` (Ac-LKRVWKRVFK[R8]LKRYWR[S5]LKKPVR-NH2; staple (Z) 11-18): the MIC in the test with Klebsiella pneumoniae is 4.9 µg/mL (≈ 1.48 µM); in the test on Staphylococcus aureus, 9.7 µg/mL (≈ 2.92 µM); in the test with Pseudomonas aeruginosa, 5 µg/mL (≈ 1.51 µM); with Streptococcus pneumoniae, 37.7 µg/mL (≈ 11.4 µM).
